Measured values published in PubChem BioAssay (NCI).
Where “and” joins values, the source holds several entries; their conditions need not be identical. Equal entries are not always repeated.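 1) Cells in 96-well plates. 2) Compound, 48 h, 5 concentrations. 3) Linear interpolation between surrounding doses. 4) Unreached endpoint = highest concentration. Here, GI50 denotes the concentration required for 50% inhibition of growth. The concentration for full growth arrest is given as TGI.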

How the values were obtained:
Experiment in all cases: DTP human tumour cell line panel, 48 h
786-0 renal = test system: 786-0 renal
HOP-62 NSCLC = test system: HOP-62 NSCLC
KM12 colon = test system: KM12 colon
M14 melanoma = test system: M14 melanoma
MALME-3M melanoma = test system: MALME-3M melanoma
MOLT-4 leukemia = test system: MOLT-4 leukemia
NCI-H522 lung = test system: NCI-H522 lung
SK-OV-3 ovarian = test system: SK-OV-3 ovarian
DU-145 prostate = test system: DU-145 prostate
HS 578T breast = test system: HS 578T breast

| SMILES | TGI (786-0 renal) | TGI (HOP-62 NSCLC) | TGI (KM12 colon) | TGI (M14 melanoma) | TGI (MALME-3M melanoma) | TGI (MOLT-4 leukemia) | TGI (NCI-H522 lung) | TGI (SK-OV-3 ovarian) | TGI (DU-145 prostate) | TGI (HS 578T breast) | GI50 (DU-145 prostate) | GI50 (HOP-62 NSCLC) | GI50 (KM12 colon) | GI50 (M14 melanoma) | GI50 (MOLT-4 leukemia) | GI50 (NCI-H522 lung) | GI50 (SK-OV-3 ovarian) |
| --- | --- | --- | --- | --- | --- | --- | --- | --- | --- | --- | --- | --- | --- | --- | --- | --- | --- |
| COc1ccc2nc3c(c(NCCCN(C)C)c2c1)CCCC3 | 28.8 µM | 30.9 µM | 33 µM | 26.1 µM | 33.9 µM | 14.2 µM | 31.3 µM | 58.4 µM |  |  |  |  |  |  |  |  |  |
| O=C1Nc2cc([N+](=O)[O-])c(Br)cc2C1=O | 35.8 µM | 75.1 µM | > 100 µM | 30.1 µM | 46.4 µM | 43 µM | 30.3 µM | > 100 µM |  |  |  |  |  |  |  |  |  |
| C[N+](C)(C)C=Nc1cccc2c1CCCC2 | > 100 µM | > 100 µM |  | > 100 µM | > 100 µM | > 100 µM |  | > 100 µM | > 100 µM | > 100 µM |  |  |  |  |  |  |  |
| Cc1ccc(-n2cc(-c3ccc(Cl)cc3)c3c(NN)ncnc32)cc1 | 11.1 µM | 22.6 µM | 29 µM | 3.75 µM | 21.5 µM | 11.5 µM | 15.8 µM | 44.2 µM | 12.8 µM |  |  |  |  |  |  |  |  |
| Cc1ccc(S(=O)(=O)[C@@H](Cl)[C@H]2N=C(Cl)NN=C2c2ccccc2)cc1 | 85 µM | 42.7 µM | 50 µM | 42.6 µM | 41.7 µM | 83.1 µM | 35.9 µM | > 100 µM | 70.9 µM |  |  |  |  |  |  |  |  |
| O=S(=O)(c1ccc(-c2nnc(-c3ccc(F)cc3)o2)cc1)c1ccc(-c2nnc(-c3ccc(F)cc3)o2)cc1 | > 100 µM | > 100 µM | > 100 µM | > 100 µM | > 100 µM | > 100 µM | > 100 µM | 90.3 µM | > 100 µM |  |  |  |  |  |  |  |  |
| C=C(C)C1CC/C(C)=C/CC[C@]2(C)O[C@@H]2CCC2=CC1OC2=O (stereo partly specified) |  | > 100 µM | > 100 µM | > 100 µM |  | 30.6 µM | > 100 µM | > 100 µM | > 100 µM |  | 18.4 µM | > 100 µM | 21.6 µM | 37.2 µM | 12.1 µM | > 100 µM | > 100 µM |
| CCOC(=O)c1cc2c(OCc3ccccc3)c(OC)cc3c2c(n1)N(c1ccc(OC)cc1)C(C)C3 (stereo unspecified) | > 50 µM | > 50 µM |  | > 50 µM | > 50 µM | > 50 µM | > 50 µM | > 50 µM |  |  |  |  |  |  |  |  |  |
| O=NN(CCF)C(=O)NC1CC2CCC1C2 (stereo unspecified) |  | 97.7 µM | > 100 µM |  | > 100 µM | > 100 µM | > 100 µM | > 100 µM |  |  |  |  |  |  |  |  |  |
| Cc1cn(C2CC(CCCO)C(CO)O2)c(=O)[nH]c1=O (stereo unspecified) | > 100 µM | > 100 µM | > 100 µM | > 100 µM | > 100 µM | > 100 µM | > 100 µM | > 100 µM |  |  |  |  |  |  | > 100 µM |  |  |
| Cc1nnc2n(c1=O)CCN2C | > 100 µM | > 100 µM | > 100 µM | > 100 µM | > 100 µM | > 100 µM |  | > 100 µM | > 100 µM | > 100 µM |  |  |  |  |  |  |  |
| CCC(COC(=O)CC[C@@H](NC(=O)C(C)NC(=O)C(C)OC1C(O)C(CO)OC(OCc2ccccc2)C1NC(C)=O)C(N)=O)NC1c2ccccc2Nc2cccc([N+](=O)[O-])c21 (stereo partly specified) | > 100 µM | > 100 µM | > 100 µM | > 100 µM | > 100 µM | > 100 µM | > 100 µM | > 100 µM |  |  |  |  |  |  |  |  |  |
| CN(C(=O)c1ccc2c(c1)sc1c(=O)n(C)c3ccccc3c12)c1ccccc1 | > 100 µM |  | > 100 µM | > 100 µM | > 100 µM | > 100 µM | > 100 µM | > 100 µM | > 100 µM |  |  |  |  |  |  |  |  |
| CC12CCCCC1=[N+]([O-])C(C)(C)N2O (stereo unspecified) | > 100 µM | > 100 µM | > 100 µM | > 100 µM | > 100 µM |  |  | > 100 µM | > 100 µM | > 100 µM |  |  |  |  |  |  |  |
| CN(C)c1ccc(/C=C/C(=O)N[C@@H]2C(=O)N3[C@@H]2SC(C)(C)[C@@H]3C(=O)O)cc1 | > 100 µM | > 100 µM | > 100 µM | > 100 µM |  | > 100 µM | > 100 µM |  | > 100 µM | > 100 µM |  |  |  |  |  |  |  |
| Nc1cccc(S(=O)(=O)Nc2nnc(S(N)(=O)=O)s2)c1 | > 100 µM | > 100 µM | > 100 µM | > 100 µM | > 100 µM | > 100 µM | > 100 µM | > 100 µM | > 100 µM |  |  |  |  |  |  |  |  |
| O=C1CC(C(OCc2ccccc2)C(OCc2ccccc2)C(COCc2ccccc2)OCc2ccccc2)CC(=O)N1 (stereo unspecified) | > 100 µM |  | > 100 µM | > 100 µM | > 100 µM | > 100 µM |  |  | > 100 µM | > 100 µM |  |  | > 100 µM and 37.9 µM |  | > 100 µM and 37.7 µM |  |  |
